Among the data in the RepoRT retention time repository (doi:10.1021/acs.analchem.2c02893) are LC retention time values, retold here.

This data set can be described thus: RP, Thermo Scientific Acclaim RSLC 120 C18, 100 × 2.1 mm, 2.2 µm, 30 °C, 0.2 mL/min, estimated dead time 1.1 min; A: 90% water + 10% methanol + 0.01% formic acid + 5 mM ammonium formate, pH 3.61; B: methanol + 0.01% formic acid + 5 mM ammonium formate, pH 3.61; gradient (min/%B) 0/1 1/1 2/39 13/99.9 15/99.9 15.1/1 20.1/1. The following applies: stereoisomer not certain.

Structures are written as SMILES.

In the case of `CC(C)c1nc(CN(C)C(=O)NC(C(=O)NC(Cc2ccccc2)CC(O)C(Cc2ccccc2)NC(=O)OCc2cncs2)C(C)C)cs1` (configuration not stated) [Ritonavir], the LC retention time was 11.1 min. `O=C(NCC1CN(c2ccc(N3CCOCC3=O)cc2)C(=O)O1)c1ccc(Cl)s1` (configuration not stated) [Rivaroxaban]: the LC retention time was 7.03 min. The figure for `CN(C)CCc1c[nH]c2ccc(Cn3cncn3)cc12` [Rizatriptan] is 3.49 min.

Take `NC(=NN=Cc1ccc(Cl)cc1)NN=Cc1ccc(Cl)cc1` [Robenidine]: the LC retention time is 10.4 min.

As for `Cn1c([N+](=O)[O-])cnc1COC(N)=O` [Ronidazole], the LC retention time was 3.55 min. The result for `CCCN(CCC)CCc1cccc2c1CC(=O)N2` [Ropinirole] reads 3.98 min; that for `CCCN1CCCCC1C(=O)Nc1c(C)cccc1C` (configuration not stated) [Ropivacaine], 5.39 min. The figure for `CN(CCOc1ccc(CC2SC(=O)NC2=O)cc1)c1ccccn1` (configuration not stated) [Rosiglitazone] is 6.98 min; for `CC(C)c1nc(N(C)S(C)(=O)=O)nc(-c2ccc(F)cc2)c1C=CC(O)CC(O)CC(=O)O` (configuration not stated) [Rosuvastatin] it is 8.2 min; for `C=C(C)C1Cc2c(ccc3c2OC2COc4cc(OC)c(OC)cc4C2C3=O)O1` (configuration not stated) [Rotenone] it is 10.5 min.

In the case of `CCC1OC(=O)C(C)C(OC2CC(C)(OC)C(O)C(C)O2)C(C)C(OC2OC(C)CC(N(C)C)C2O)C(C)(O)CC(C)C(=NOCOCCOC)C(C)C(O)C1(C)O` (configuration not stated) [Roxithromycin], the LC retention time is 9.23 min. The figure for `O=C(Oc1cccc2ccccc12)c1nn(CCCCCF)c2ccccc12` [SDB-005-5F] is 12.1 min. Take `CCCCCn1nc(C(=O)Oc2cccc3ccccc23)c2ccccc21` [SDB-005]: the LC retention time was 13.1 min.

In the case of `CCCCCn1cc(C(=O)Nc2ccccc2)c2ccccc21` [SDB-006 N-phenyl], the LC retention time is 11.3 min. As for `O=C(NCc1ccccc1)c1cn(CCCCCF)c2ccccc12` [SDB-006-5F], the LC retention time was 10 min. The result for `CCCCCn1cc(C(=O)NCc2ccccc2)c2ccccc21` [SDB-006] reads 11.2 min; that for `O=C(NC12CC3CC(CC(C3)C1)C2)c1cn(CCCCCF)c2ccccc12` [STS-135], 12.2 min. Take `COC(=O)Nc1ccc(Cl)c(Cl)c1` [SWEP.MCC]: the LC retention time was 9.68 min. Regarding `CC(C)NC(=O)c1ccccc1O` [Salicylamide-N-Isopropyl], the LC retention time is 7.14 min. The figure for `NC(=O)c1ccccc1O` [Salicylamide] is 4.76 min.

As to `O=C(Nc1ccc(C(=O)O)c(O)c1)c1ccccc1` [Salicylic acid-4-Benzamido], the LC retention time is 5.47 min.

As to `OCc1cc(C(O)CNCCCCCCOCCCCc2ccccc2)ccc1O` (configuration not stated) [Salmeterol], the LC retention time was 8.83 min. Consider `O=C(O)c1cn(-c2ccc(F)cc2)c2cc(N3CCNCC3)c(F)cc2c1=O` [Sarafloxacin], for which the LC retention time was 4.83 min. The figure for `CN(C)P(=O)(OP(=O)(N(C)C)N(C)C)N(C)C` [Schradan] is 5.36 min; for `C[N+]1(C)C2CC(OC(=O)C(CO)c3ccccc3)CC1C1OC12` (configuration not stated) [Scopolamine-Methyl] it is 3.88 min. The figure for `CN1C2CC(OC(=O)C(CO)c3ccccc3)CC1C1OC12` (configuration not stated) [Scopolamine] is 3.83 min. The figure for `CCNc1nc(Cl)nc(NC(C)CC)n1` (configuration not stated) [Sebuthylazine] is 9.09 min; for `CCNc1nc(NC(C)CC)nc(OC)n1` (configuration not stated) [Secbumeton] it is 8.79 min; for `NNC(N)=O` [Semicarbazide (SEM)] it is 1.33 min. For the molecule `CC=C1CC(C)C(C)(O)C(=O)OCC2=CC[N+]3([O-])CCC(OC1=O)C23` (configuration not stated) [Senecionine-N-oxide], the LC retention time is 5.07 min. The result for `CC=C1CC(C)C(C)(O)C(=O)OCC2=CCN3CCC(OC1=O)C23` (configuration not stated) [Senecionine] reads 4.62 min; that for `C=C1CC(=CC)C(=O)OC2CC[N+]3([O-])CC=C(COC(=O)C1(C)O)C23` (configuration not stated) [Seneciphylline-N-oxide], 4.5 min. The figure for `C=C1CC(=CC)C(=O)OC2CCN3CC=C(COC(=O)C1(C)O)C23` (configuration not stated) [Seneciphylline] is 4.17 min; for `CC=C1CC(C)C(C)(O)C(=O)OCC2=CCN(C)CCC(OC1=O)C2=O` (configuration not stated) [Senkirkine] it is 5.16 min; for `O=C1NCCN1CCN1CCC(c2cn(-c3ccc(F)cc3)c3ccc(Cl)cc23)CC1` [Sertindole] it is 9.26 min.

For `NC1CCC(c2ccc(Cl)c(Cl)c2)c2ccccc21` (configuration not stated) [Sertraline-Desmethyl], the LC retention time is 9.02 min. The figure for `CNC1CCC(c2ccc(Cl)c(Cl)c2)c2ccccc21` (configuration not stated) [Sertraline] is 8.94 min.

With `CNC(CC(C)C)C1(c2ccc(Cl)cc2)CCC1` (configuration not stated) [Sibutramine-Nor], the LC retention time is 8.68 min. The result for `CC(C)CC(N(C)C)C1(c2ccc(Cl)cc2)CCC1` (configuration not stated) [Sibutramine] reads 8.66 min; that for `CC1CCCCC1NC(=O)Nc1ccccc1` (configuration not stated) [Siduron], 9.37 min; that for `CCCc1nn(C)c2c(=O)[nH]c(-c3cc(S(=O)(=O)N4CCCCC4)ccc3OCC)nc12` [Sildenafil Norneo], 10.9 min. Regarding `CCCc1nn(C)c2c(=S)nc(-c3cc(S(=O)(=O)N4CC(C)NC(C)C4)ccc3OCC)[nH]c12` (configuration not stated) [Sildenafil Thiodimethyl], the LC retention time was 9.91 min. The figure for `CCCc1nn(C)c2c(=S)nc(-c3cc(S(=O)(=O)N4CCN(CC)CC4)ccc3OCC)[nH]c12` [Sildenafil Thiohomo] is 10.6 min; for `CCCc1nn(C)c2c(=O)[nH]c(-c3cc(S(=O)(=O)N4CCN(Cc5ccccc5)CC4)ccc3OCC)nc12` [Sildenafil-Benzyl] it is 11.5 min; for `CCCc1nn(C)c2c(=O)[nH]c(-c3cc(S(=O)(=O)N4CC(C)NC(C)C4)ccc3OCC)nc12` (configuration not stated) [Sildenafil-Dimethyl] it is 7.6 min. The figure for `CCCc1nn(C)c2c(=O)[nH]c(-c3cc(S(=O)(=O)N4CCN(CCO)CC4)ccc3OCC)nc12` [Sildenafil-Hydroxyhomo] is 7.83 min. The result for `CCCc1nn(C)c2c(=S)nc(-c3cc(S(=O)(=O)N4CCN(CCO)CC4)ccc3OCC)[nH]c12` [Sildenafil-Hydroxythiohomo] reads 10.5 min. As for `CCCc1nn(C)c2c(=S)nc(-c3cc(S(=O)(=O)N4CCN(C)CC4)ccc3OCC)[nH]c12` [Sildenafil-Thio], the LC retention time was 10.6 min. As to `CCCc1nn(C)c2c(=O)[nH]c(-c3cc(S(=O)(=O)N4CCN(C)CC4)ccc3OCC)nc12` [Sildenafil], the LC retention time is 7.88 min. The figure for `CCNc1nc(NCC)[nH]c(=O)n1` [Simazine-2-hydroxy] is 4.21 min. The figure for `CCNc1nc(Cl)nc(NCC)n1` [Simazine] is 7.07 min; for `CCNc1nc(NCC)nc(SC)n1` [Simetryn] it is 8.14 min. With `CCC(C)(C)C(=O)OC1CC(C)C=C2C=CC(C)C(CCC3CC(O)CC(=O)O3)C21` (configuration not stated) [Simvastatin], the LC retention time was 12.6 min. The result for `NC(CC(=O)N1CCn2c(nnc2C(F)(F)F)C1)Cc1cc(F)c(F)cc1F` (configuration not stated) [Sitagliptin] reads 5.08 min; that for `O=C(OC1CN2CCC1CC2)N1CCc2ccccc2C1c1ccccc1` (configuration not stated) [Solifenacin], 7.95 min. The figure for `CC(C)NCC(O)c1ccc(NS(C)(=O)=O)cc1` (configuration not stated) [Sotalol] is 2.96 min; for `CCC1CCCC(OC2CCC(N(C)C)C(C)O2)C(C)C(=O)C2=CC3C(C=C(C)C4CC(OC5OC(C)C(OC)C(OC)C5OC)CC43)C2CC(=O)O1` (configuration not stated) [Spinosad D] it is 11.8 min; for `CCC1CCCC(OC2CCC(N(C)C)C(C)O2)C(C)C(=O)C2=CC3C(C=CC4CC(OC5OC(C)C(OC)C(OC)C5OC)CC43)C2CC(=O)O1` (configuration not stated) [Spinosyn A] it is 11.2 min.

In the case of `CCOC(=O)C(CCc1ccccc1)NC(C)C(=O)N1CC2(CC1C(=O)O)SCCS2` (configuration not stated) [Spirapril], the LC retention time was 8.23 min. The result for `Cc1cc(C)c(C2=C(OC(=O)CC(C)(C)C)C3(CCCC3)OC2=O)c(C)c1` [Spiromesifen] reads 12.8 min; that for `CC(=O)SC1CC2=CC(=O)CCC2(C)C2CCC3(C)C(CCC34CCC(=O)O4)C12` (configuration not stated) [Spironolactone], 9.24 min; that for `CCCN(CC)CC1COC2(CCC(C(C)(C)C)CC2)O1` (configuration not stated) [Spiroxamine], 9.32 min. The figure for `CC12Cc3cn[nH]c3CC1CCC1C2CCC2(C)C1CCC2(C)O` (configuration not stated) [Stanozolol] is 11.3 min.

As for `O=C1CC2OCC=C3CN4CCC56c7ccccc7N1C5C2C3CC46` (configuration not stated) [Strychnine], the LC retention time was 4.16 min. With `Cc1ccc(N=Nc2c(O)ccc3ccccc23)c(C)c1` [Sudan II], the LC retention time is 14.9 min. The result for `Oc1ccc2ccccc2c1N=Nc1ccccc1` [Sudan I] reads 13.6 min. The figure for `CS(=O)(=O)c1ccc(C(=O)C2C(=O)CCCC2=O)c(Cl)c1` [Sulcotrione] is 5 min; for `Nc1ccc(S(=O)(=O)NC(=O)c2ccccc2)cc1` [Sulfabenzamide] it is 4.72 min. The figure for `Nc1ccc(S(=O)(=O)Nc2ccc(Cl)nn2)cc1` [Sulfachloropyridazine] is 4.56 min; for `Cc1nc(C)c(Cl)c(NS(=O)(=O)c2ccc(N)cc2)n1` [Sulfaclomide] it is 3.96 min; for `Nc1ccc(S(=O)(=O)Nc2cncc(Cl)n2)cc1` [Sulfaclozine] it is 5.45 min.

For `CC(=O)Nc1ccc(S(=O)(=O)Nc2ncccn2)cc1` [Sulfadiazine-N4-Acetyl], the LC retention time was 4.11 min.
